Test results from article PMC12842892, “Truncated Equinin B Variants Reveal the Sequence Determinants of Antimicrobial Selectivity” (Marine Drugs, 2026).
Converted amounts (≈) assume the structure as drawn. Where two headings read alike, the source gives them in different places. Where a SMILES comes first, the peptide text is derived from it. Where no end group is shown, it is not given here.

Legend:
[1] = tested on: Staphylococcus epidermidis DSM 20044; format: cell-based
Method: (§1) For these studies we used reference strains Escherichia coli ATCC25922, Bacillus subtilis 168c, Staphylococcus epidermidis DSM 20044 (DSMZ Gmbh, Brauschweig, Germany) and Enterococcus hirae DSM 3320 (DSMZ Gmbh, Germany). Bacterial cells were inoculated into Mueller–Hinton Broth II (MHB II; Sigma-Aldrich, Steinheim, Germany) and grown to the mid-logarithmic phase, washed in sodium buffered saline (PBS, 137 mM NaCl, 2.7 mM KCl, 10 mM Na2HPO4, and 2 mM KH2PO4, pH 7.4). The culture was adjusted to ~1 × 10^6 CFU/mL and dispensed into 96-well microtiter plates. Peptides were tested in two-fold serial dilutions across a concentration range of 0.4–100 µM, each concentration assayed in duplicate. Growth control wells (bacteria + medium, no peptide) and sterility control wells (medium only) were included. In parallel, the inoculum density and purity were verified by plating serial dilutions of the bacterial culture on MHB agar. After incubation at 37 °C for 20 h under static conditions, bacterial growth was quantified by measuring optical density at 620 nm (OD 620). […] The experiment was repeated in three independent biological replicates.

[2] = tested on: Gram-positive and Gram-negative bacteria; settings: cited from earlier work
Source text: Even though the discovery of antibiotics revolutionized medicine, their inappropriate use has enabled the spread of resistant bacteria and rendered commercially available antibiotics ineffective. Antibiotic resistance (AR) is one of the greatest threats, and the development of new molecules with antibacterial activity has become a global priority. Antimicrobial peptides (AMPs), naturally occurring defense molecules found across many species, represent a powerful alternative antibacterial strategy against antibiotic-resistant pathogens. As part of the innate immune response, ...

[3] = tested on: Escherichia coli ATCC25922; format: cell-based; settings: E. coli ATCC25922; cation-adjusted MHB II; ~1 × 10^6 CFU/mL; two-fold dilutions; 37 °C, 20 h; OD 620; three independent replicates, duplicates
Method: as §1

B. subtilis = assay: Membrane permeability assay (propidium iodide uptake), B. subtilis; format: cell-based, Bacillus subtilis; settings: 1 × 10^7 cells/mL in PBS; PI 2.5 µg/mL; up to 400 µM; 37 °C, 120 min; fluorescence 535/617 nm; three independent experiments in duplicates
Method: (§2) Bacterial membrane permeabilization was evaluated using propidium iodide (PI) uptake. PI is a membrane-impermeable dye: it cannot cross intact bacterial cytoplasmic membranes, but when the membrane integrity is compromised (for example, via peptide-mediated permeabilization), PI enters the cell, intercalates into nucleic acids (DNA and RNA) and fluorescence increases markedly. B. subtilis, E. hirae and S. epidermidis cells were grown to mid-logarithmic phase, harvested by centrifugation, washed once with PBS and diluted to a concentration of 1 × 10^7 cells/mL using PBS instead of growth medium. […] Fluorescence (excitation 535 nm, emission 617 nm) was monitored every 2 min for 120 min at 37 °C using a microplate reader (GloMax®, Promega, Madison, WI, USA). The time-course fluorescence curves were recorded for each peptide concentration (in duplicate for each time point, and the entire experiment was repeated three independent times). From each time-course fluorescence curve (for a given peptide concentration), a constant time-window (for example minutes 10 to 20) was selected where the fluorescence signal was stable or in the linear uptake phase. The fluorescence values within that window were averaged to provide a representative fluorescence uptake value for that peptide concentration. […]

E. hirae = assay: Membrane permeability assay (propidium iodide uptake), E. hirae; format: cell-based, Enterococcus hirae; settings: 1 × 10^7 cells/mL in PBS; PI 2.5 µg/mL; 37 °C, 120 min
Method: as §2

S. epidermidis = assay: Membrane permeability assay (propidium iodide uptake), S. epidermidis; format: cell-based, Staphylococcus epidermidis; settings: 1 × 10^7 cells/mL in PBS; PI 2.5 µg/mL; 37 °C, 120 min
Method: as §2

CC[C@H](C)[C@H](NC(=O)[C@H](CS)NC(=O)[C@@H](N)CCCNC(=N)N)C(=O)N[C@@H](CCCNC(=N)N)C(=O)N[C@@H](CCCNC(=N)N)C(=O)N[C@@H](CS)C(=O)N[C@@H](Cc1ccccc1)C(=O)NCC(=O)N[C@@H](Cc1ccc(O)cc1)C(=O)N[C@@H](CS)C(=O)N[C@@H](CC(C)C)C(=O)O [EB3, Arg-Cys-Ile-Arg-Arg-Cys-Phe-Gly-Tyr-Cys-Leu] (H-RCIRRCFGYCL-OH)
MIC against S. epidermidis ([1]; DSM 20044, 20 h): 25 µM (≈ 34.7 µg/mL)

GQCQRKCLGHCSKKCPKHPQCRKRCIRRCFGYCL [Equinin B, 34-residue marine antimicrobial peptide isolated from the tentacle of Actinia equina]
bactericidal concentrations [2]: 0.25 mg/mL
minimum inhibitory concentrations (MICs) [2]: 1000 µg/mL

RRIRRRGYRL-OH [EB3a-C, Arg-Arg-Ile-Arg-Arg-Arg-Gly-Tyr-Arg-Leu]
MIC90, Escherichia coli [3]: >100 µg/mL
antimicrobial activity against S. epidermidis, in words ([1]; MIC assay, up to 100 µM): abolished activity
MIC90, Staphylococcus epidermidis ([1]; S. epidermidis DSM 20044, cation-adjusted MHB II, ~1 × 10^6 CFU/mL, two-fold dilutions, 37 °C, 20 h, OD 620, three independent replicates, duplicates): >100 µg/mL

LL-37 (LLGDFFRKSKEKIGKEFKRIVQRIKDFLRNLVPRTES; Antibacterial peptide LL-37; UniProt P49913 134-170, looked up)
membrane permeabilization of B. subtilis (PI uptake), in words (B. subtilis): extensive membrane permeabilization
membrane permeabilization of E. hirae (PI uptake), in words (E. hirae): unable to permeabilize
membrane permeabilization of S. epidermidis (PI uptake), in words (S. epidermidis): unable to permeabilize

RRIRRRFGYRL [EB3-C, Arg-Arg-Ile-Arg-Arg-Arg-Phe-Gly-Tyr-Arg-Leu]
MIC90, Staphylococcus epidermidis ([1]; DSM 20044, 20 h): 25 to 50 µg/mL
